Patent publication US20220127255A1, “HERBICIDAL COMPOUNDS” (SYNGENTA CROP PROTECTION AG, priority 2019, published 2022)
Counter-ions that a name gives are not always drawn. Like-named read-outs stand apart in the source and are kept apart here.

Columns and labels:
Assay in all cases: Post-emergence efficacy, glasshouse spray test
Format in all cases: in vivo
Eleusine indica (ELEIN) = settings: 312 h, read-out: Control of weed species ELEIN after post-emergence application (100=total damage to plant; 0=no damage to plant)
Description: (§1) Seeds of a variety of test species were sown in standard soil in pots. After cultivation for 14 days (post-emergence) under controlled conditions in a glasshouse (at 24/16° C., day/night; 14 hours light; 65% humidity), the plants were sprayed with an aqueous spray solution derived from the dissolution of the technical active ingredient formula (I) in a small amount of acetone and a special solvent and emulsifier mixture referred to as IF50 (11.12% Emulsogen EL360 TM+44.44% N-methylpyrrolidone+44.44% Dowanol DPM glycol ether), to create a 50 g/l solution which was then diluted to required concentration using 0.25% or 1% Empicol ESC70 (Sodium lauryl ether sulphate)+1% ammonium sulphate as diluent.
(§2) The test plants were then grown in a glasshouse under controlled conditions (at 24/16° C., day/night; 14 hours light; 65% humidity) and watered twice daily. After 13 days the test was evaluated (100=total damage to plant; 0=no damage to plant).
(§3) Ipomoea hederacea (IPOHE), Euphorbia heterophylla (EPHHL), Chenopodium album (CHEAL), Amaranthus palmeri (AMAPA), Lolium perenne (LOLPE), Digitaria sanguinalis (DIGSA), Eleusine indica (ELEIN), Echinochloa crus-galli (ECHCG), Setaria faberi (SETFA)

[1] = tested on: Ipomoea hederacea (IPOHE); settings: 312 h, read-out: Control of weed species IPOHE after post-emergence application (100=total damage to plant; 0=no damage to plant)
Description: as §1, §2, §3

[2] = tested on: Chenopodium album (CHEAL); settings: 312 h, read-out: Control of weed species CHEAL after post-emergence application (100=total damage to plant; 0=no damage to plant)
Description: as §1, §2, §3

[3] = tested on: Amaranthus palmeri (AMAPA); settings: 312 h, read-out: Control of weed species AMAPA after post-emergence application (100=total damage to plant; 0=no damage to plant)
Description: as §1, §2, §3

Lolium perenne (LOLPE) = settings: 312 h, read-out: Control of weed species LOLPE after post-emergence application (100=total damage to plant; 0=no damage to plant)
Description: as §1, §2, §3

[4] = tested on: Digitaria sanguinalis (DIGSA); settings: 312 h, read-out: Control of weed species DIGSA after post-emergence application (100=total damage to plant; 0=no damage to plant)
Description: as §1, §2, §3

[5] = tested on: Echinochloa crus-galli (ECHCG); settings: 312 h, read-out: Control of weed species ECHCG after post-emergence application (100=total damage to plant; 0=no damage to plant)
Description: as §1, §2, §3

Setaria faberi (SETFA) = settings: 312 h, read-out: Control of weed species SETFA after post-emergence application (100=total damage to plant; 0=no damage to plant)
Description: as §1, §2, §3

[6] = tested on: Euphorbia heterophylla (EPHHL); settings: 312 h, read-out: Control of weed species EPHHL after post-emergence application (100=total damage to plant; 0=no damage to plant)
Description: as §1, §2, §3

[7] = 500 g/Ha, evaluated after 13 days
[8] = 130 g/Ha, evaluated after 13 days

SMILES	pest or weed control at 500 g/ha (Eleusine indica (ELEIN); [7])	pest or weed control at 500 g/ha [1, 7]	pest or weed control at 500 g/ha [2, 7]	pest or weed control at 500 g/ha [3, 7]	pest or weed control at 500 g/ha (Lolium perenne (LOLPE); [7])	pest or weed control at 500 g/ha [4, 7]	pest or weed control at 500 g/ha [5, 7]	pest or weed control at 500 g/ha (Setaria faberi (SETFA); [7])	pest or weed control at 500 g/ha [6, 7]	also measured
O=C1NC(=O)C(CC[n+]2ccc(-c3ncccn3)cn2)S1 (stereo not drawn) [Compound A1, 5-[2-(4-pyrimidin-2-ylpyridazin-1-ium-1-yl)ethyl]thiazolidine-2,4-dione trifluoroacetate]										pest or weed control at 500 g/ha (Eleusine indica (ELEIN)): 70%; pest or weed control at 500 g/ha [1]: 50%; pest or weed control at 500 g/ha [2]: 30%; pest or weed control at 500 g/ha [3]: 90%; pest or weed control at 500 g/ha (Lolium perenne (LOLPE)): 40%; pest or weed control at 500 g/ha [4]: 60%; pest or weed control at 500 g/ha [5]: 50%; pest or weed control at 500 g/ha (Setaria faberi (SETFA)): 60%; pest or weed control at 500 g/ha [6]: 50%
Cc1cc(O)c(C(=O)C[n+]2ccc(-c3ncccn3)cn2)c(=O)o1 [Compound A2, 4-hydroxy-6-methyl-3-[2-(4-pyrimidin-2-ylpyridazin-1-ium-1-yl)acetyl]pyran-2-one trifluoroacetate]	70%	10%	0%	90%	10%	30%	20%	20%	70%	
Cc1nnc(NC(=O)C[n+]2ccc(-c3ncccn3)cn2)s1 [Compound A3]	0%		30%	50%	0%	0%	10%	0%		
O=C(C[n+]1ccc(-c2ncccn2)cn1)Nc1nccs1 [Compound A4]	80%	10%	60%	70%	0%	10%	0%	20%	100%	
O=C(C[n+]1ccc(-c2ncccn2)cn1)Nc1nncs1 [Compound A5]	70%	20%	30%	100%	0%	70%	50%	20%	20%	
Cn1nnnc1NC(=O)C[n+]1ccc(-c2ncccn2)cn1 [Compound A6]	20%	40%	90%	90%	0%	30%	30%	30%	80%	
O=C(C[n+]1ccc(-c2ncccn2)cn1)Nc1nnn[n-]1 [Compound A7]	30%	30%	90%	90%	10%	30%	20%	50%	30%	
O=S(=O)(CC[n+]1ccc(-c2ncccn2)cn1)c1cnn[nH]1 [Compound A8, 4-pyrimidin-2-yl-1-[2-(1H-triazol-5-ylsulfonyl)ethyl]pyridazin-1-ium 2,2,2-trifluoroacetate]										pest or weed control at 130 g/ha (Eleusine indica (ELEIN); [8]): 50%; pest or weed control at 130 g/ha [1, 8]: 20%; pest or weed control at 130 g/ha [2, 8]: 0%; pest or weed control at 130 g/ha [3, 8]: 60%; pest or weed control at 130 g/ha (Lolium perenne (LOLPE); [8]): 0%; pest or weed control at 130 g/ha [5, 8]: 40%; pest or weed control at 130 g/ha (Setaria faberi (SETFA); [8]): 50%; pest or weed control at 130 g/ha [6, 8]: 70%
Oc1cc(C[n+]2ccc(-c3ncccn3)cn2)on1 [Compound A9, 5-[(4-pyrimidin-2-ylpyridazin-1-ium-1-yl)methyl]isoxazol-3-ol 2,2,2-trifluoroacetate]	20%	20%	40%	20%	10%	40%	30%	20%	30%	
